Measurements from PMC9181902 (Journal of the American Chemical Society, 2022).
Entries after “also recorded” stand apart in the source; their conditions may differ. Values belong to the compound of their own block, whether it stands above or below them.

What was measured:
hOAT [1] = target: T1, hOAT (Homo sapiens, UniProt P04181); details: cited from earlier work
T1 sequence (P04181 26-439): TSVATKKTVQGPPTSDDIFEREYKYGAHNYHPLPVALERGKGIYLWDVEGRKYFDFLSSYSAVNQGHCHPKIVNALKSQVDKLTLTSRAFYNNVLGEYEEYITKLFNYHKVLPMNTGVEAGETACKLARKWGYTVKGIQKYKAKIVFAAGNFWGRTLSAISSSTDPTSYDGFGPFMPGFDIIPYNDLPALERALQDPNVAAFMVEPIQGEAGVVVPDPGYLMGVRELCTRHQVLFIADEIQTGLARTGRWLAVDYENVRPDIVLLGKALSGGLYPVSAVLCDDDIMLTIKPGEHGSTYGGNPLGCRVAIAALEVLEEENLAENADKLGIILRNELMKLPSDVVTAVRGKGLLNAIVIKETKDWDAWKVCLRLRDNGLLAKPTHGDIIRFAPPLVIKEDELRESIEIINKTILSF

[2] = cited from earlier work
hOAT [3] = target: T1, hOAT; assay: Dialysis of inactivated hOAT, return of enzyme activity; assay type: biochemical
GABA-AT [4] = details: cited from earlier work
GABA-AT [5] = assay: Inhibition of GABA-AT; assay type: biochemical, human; details: even at high concentrations
Asp-AT = assay: Inhibition of Asp-AT; assay type: biochemical, human; details: even at high concentrations
Ala-AT = assay: Inhibition of Ala-AT; assay type: biochemical, human; details: even at high concentrations
hOAT [6] = target: T1, hOAT; assay: Partition ratio; assay type: biochemical
hOAT [7] = target: T1, hOAT; assay: Stopped-flow transient state measurements of hOAT; assay type: biochemical

SMILES: N[C@H]1C[C@@H](C(=O)O)CC1=C(C(F)(F)F)C(F)(F)F [6c, (1S,3S)-3-amino-4-(hexafluoropropan-2-ylidenyl)cyclopentane-1-carboxylic Acid]
Ki (hOAT [1]): 65 ± 10 µM | in vivo antitumor efficacy [2]: potent in vivo antitumor efficacy

enzyme activity recovered after dialysis (hOAT [3]; 48 h of dialysis): no enzyme activity was recovered
SMILES: N[C@H]1C[C@@H](C(=O)O)CC1=C(F)F [compound 1, (1S,3S)-3-amino-4-(difluoromethylene)cyclopentane-1-carboxylic acid]

SMILES: N[C@H]1C=C(C(=O)O)CC1=C(F)F [compound 7, (S)-3-amino-4-(difluoromethylenyl)cyclopent-1-ene-1-carboxylic acid]
enzyme activity recovered after dialysis (hOAT [3]; 48 h of dialysis): no enzyme activity was recovered | type of inhibition of GABA-AT (GABA-AT [4]): partially irreversible inhibitors

enzyme activity recovered after dialysis (hOAT [3]; 91 h of dialysis, varying equivalents): no enzyme activity was recovered | fraction undergoing ketimine hydrolysis to product 37 and PMP (hOAT [6]): ~ 70% | fraction of the reaction forming tight-binding adduct 34 (hOAT [6]; according to the partition ratio (1/3.38)): ~ 30% | first successive rate constant from fit of CCD data sets (k2’) (hOAT [7]; 500 μM of 10b): 0.22 s⁻¹ | second successive rate constant from fit of CCD data sets (k3’) (hOAT [7]; 500 μM of 10b): 0.21 s⁻¹ | third successive rate constant from fit of CCD data sets (k4) (hOAT [7]; 500 μM of 10b): 0.03 s⁻¹ | rate constant for formation of P1 from M2 (k4) (hOAT [7]; 410 nm, second phase, average): ~ 0.02 s^−1
SMILES: N[C@H]1C=C(C(=O)O)C[C@H]1C(F)F [10b, (3S,4R)-3-Amino-4-(difluoromethyl)cyclopent-1-ene-1-carboxylic Acid]
inhibitory activity against GABA-AT (GABA-AT [5]): weak reversible inhibitor; also recorded: weak reversible inhibitory activity | inhibitory activity against Asp-AT (Asp-AT): weak reversible inhibitory activity | inhibitory activity against Ala-AT (Ala-AT): weak reversible inhibitory activity
